Converted amounts (≈) assume the structure as drawn.
What follows are molecules tested on U87-MG (assay: Solid tumor cell growth inhibition, MTT, 72 h). Conditions: Homo sapiens, U-87 MG.
Format: cell-based
Protocol: (§1) 6000 well-growing human solid tumor cells were obtained and inoculated into wells of a 96-well cell culture plate. The culture medium was DMEM High Glucose cell culture medium containing 10% fetal bovine serum. The plate was placed in a carbon dioxide cell incubator (5% CO2) at 37° C. and incubated for 24 hours. After added with 1-oxo/acylated-14-acylated oridonin derivatives of different concentration and mixed uniformly, the plate was placed in a carbon dioxide cell incubator (5% CO2) at 37° C. and incubated for 72 hours. Then the viable cell concentration was determined by MTT method.

IC50 [µg/mL]	IC90 [µg/mL]	Compound
2.16 (≈ 3.28 µM)	6.75 (≈ 10.2 µM)	C=C1C(=O)[C@]23[C@H](OC(=O)C4CCN(S(=O)(=O)c5ccccc5[N+](=O)[O-])CC4)[C@H]1CC[C@H]2[C@@]12CO[C@@]3(O)[C@@H](O)[C@@H]1C(C)(C)CCC2=O [BS-OR-034]

Each molecule was assayed on PC-3 (assay: Solid tumor cell growth inhibition, MTT, 72 h). Conditions: Homo sapiens.
Format: cell-based
Protocol: as §1

IC50 [µg/mL]	IC90 [µg/mL]	Compound
3.88 (≈ 5.89 µM)	9.45 (≈ 14.3 µM)	C=C1C(=O)[C@]23[C@H](OC(=O)C4CCN(S(=O)(=O)c5ccccc5[N+](=O)[O-])CC4)[C@H]1CC[C@H]2[C@@]12CO[C@@]3(O)[C@@H](O)[C@@H]1C(C)(C)CCC2=O [BS-OR-034]

These molecules were tested on Hep G2 (assay: Solid tumor cell growth inhibition, MTT, 72 h). Conditions: Homo sapiens, HepG2.
Format: cell-based
Protocol: as §1

IC50 [µg/mL]	IC90 [µg/mL]	Compound
3.81 (≈ 5.78 µM)	> 16	C=C1C(=O)[C@]23[C@H](OC(=O)C4CCN(S(=O)(=O)c5ccccc5[N+](=O)[O-])CC4)[C@H]1CC[C@H]2[C@@]12CO[C@@]3(O)[C@@H](O)[C@@H]1C(C)(C)CCC2=O [BS-OR-034]

The molecules below were run on CaEs-17 (assay: Solid tumor cell growth inhibition, MTT, 72 h). Conditions: Homo sapiens, CaEs17.
Format: cell-based
Protocol: as §1

IC50 [µg/mL]	IC90 [µg/mL]	Compound
3.48 (≈ 5.28 µM)	11 (≈ 16.7 µM)	C=C1C(=O)[C@]23[C@H](OC(=O)C4CCN(S(=O)(=O)c5ccccc5[N+](=O)[O-])CC4)[C@H]1CC[C@H]2[C@@]12CO[C@@]3(O)[C@@H](O)[C@@H]1C(C)(C)CCC2=O [BS-OR-034]

The molecules below were run on RKO (assay: Solid tumor cell growth inhibition, MTT, 72 h). Conditions: Homo sapiens.
Format: cell-based
Protocol: as §1

IC50 [µg/mL]	IC90 [µg/mL]	Compound
1.21 (≈ 1.84 µM)	1.97 (≈ 2.99 µM)	C=C1C(=O)[C@]23[C@H](OC(=O)C4CCN(S(=O)(=O)c5ccccc5[N+](=O)[O-])CC4)[C@H]1CC[C@H]2[C@@]12CO[C@@]3(O)[C@@H](O)[C@@H]1C(C)(C)CCC2=O [BS-OR-034]

What follows are molecules tested on A549 (assay: Solid tumor cell growth inhibition, MTT, 72 h). Conditions: Homo sapiens.
Format: cell-based
Protocol: as §1

IC50 [µg/mL]	IC90 [µg/mL]	Compound
6.43 (≈ 9.76 µM)	11.9 (≈ 18.1 µM)	C=C1C(=O)[C@]23[C@H](OC(=O)C4CCN(S(=O)(=O)c5ccccc5[N+](=O)[O-])CC4)[C@H]1CC[C@H]2[C@@]12CO[C@@]3(O)[C@@H](O)[C@@H]1C(C)(C)CCC2=O [BS-OR-034]

The molecules below were run on SK-OV-3 (assay: Solid tumor cell growth inhibition, MTT, 72 h). Conditions: Homo sapiens, SK-OV-3; 72 h, MTT; read-out: IC50 SK-OV-3.
Format: cell-based
Protocol: as §1

IC50 [µg/mL]	Compound
3.88 (≈ 5.89 µM)	C=C1C(=O)[C@]23[C@H](OC(=O)C4CCN(S(=O)(=O)c5ccccc5[N+](=O)[O-])CC4)[C@H]1CC[C@H]2[C@@]12CO[C@@]3(O)[C@@H](O)[C@@H]1C(C)(C)CCC2=O [BS-OR-034]

Same assay, conditions: Homo sapiens, SK-OV-3; 72 h, MTT; read-out: IC90 SK-OV-3

IC90 [µg/mL]	Compound
9.45 (≈ 14.3 µM)	C=C1C(=O)[C@]23[C@H](OC(=O)C4CCN(S(=O)(=O)c5ccccc5[N+](=O)[O-])CC4)[C@H]1CC[C@H]2[C@@]12CO[C@@]3(O)[C@@H](O)[C@@H]1C(C)(C)CCC2=O [BS-OR-034]

These molecules were tested on Becap-37 (assay: Solid tumor cell growth inhibition, MTT, 72 h). Conditions: Homo sapiens.
Format: cell-based
Protocol: as §1

IC50 [µg/mL]	IC90 [µg/mL]	Compound
3.24 (≈ 4.92 µM)	10.1 (≈ 15.4 µM)	C=C1C(=O)[C@]23[C@H](OC(=O)C4CCN(S(=O)(=O)c5ccccc5[N+](=O)[O-])CC4)[C@H]1CC[C@H]2[C@@]12CO[C@@]3(O)[C@@H](O)[C@@H]1C(C)(C)CCC2=O [BS-OR-034]

The molecules below were run on K562/ADR (assay: Leukemia cell growth inhibition, MTT, 72 h). Conditions: Homo sapiens.
Format: cell-based
Source text: (§2) Leukemia cell lines: leukemia cell lines: K562/adr (drug-resistant, chronic myeloid leukemia, CML), NB4 (acute promyelocytic leukemia, AML), Kasumi-1 (acute myeloid leukemia M2 type, AML-M2), Jurkat (acute lymphoblastic leukemia, ALL), all of which were donated by Cancer Research Institute of Zhejiang University, China; and H9 (acute lymphoblastic leukemia, ALL), which was purchased from China Center for Type Culture Collection.
(§3) 6000 well-growing leukemia cells were obtained and inoculated into wells of a 96-well cell culture plate. […] On the next day, the 1-oxo/acylated-14-acylated oridonin derivatives of different concentrations were added and mixed uniformly. The plate was placed in a carbon dioxide cell incubator (5% CO2) at 37° C. and was incubated for 72 hours. Then the viable cell concentration was determined by MTT method.

IC50 [µg/mL]	IC90 [µg/mL]	Compound
1.52 (≈ 2.31 µM)	4.77 (≈ 7.24 µM)	C=C1C(=O)[C@]23[C@H](OC(=O)C4CCN(S(=O)(=O)c5ccccc5[N+](=O)[O-])CC4)[C@H]1CC[C@H]2[C@@]12CO[C@@]3(O)[C@@H](O)[C@@H]1C(C)(C)CCC2=O [BS-OR-034]

These molecules were tested on Kasumi-1 (assay: Leukemia cell growth inhibition, MTT, 72 h). Conditions: Homo sapiens.
Format: cell-based
Source text: as §2, §3

IC50 [µg/mL]	IC90 [µg/mL]	Compound
1.58 (≈ 2.4 µM)	3.46 (≈ 5.25 µM)	C=C1C(=O)[C@]23[C@H](OC(=O)C4CCN(S(=O)(=O)c5ccccc5[N+](=O)[O-])CC4)[C@H]1CC[C@H]2[C@@]12CO[C@@]3(O)[C@@H](O)[C@@H]1C(C)(C)CCC2=O [BS-OR-034]

— patent publication US9902736B2, “1-oxo/acylation-14-acylated oridonin derivative, preparation method therefor and application thereof” (HANGZHOU BENSHENG PHARMACEUTICAL CO., LTD., priority 2012, dated 2018)
